Test results from ChEMBL document CHEMBL1201862, “PubChem BioAssay data set” (2004).
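A five-concentration, 48-hour dose response in 96-well plates underlies each endpoint, interpolated linearly between surrounding concentrations. Here, GI50 denotes the concentration required for 50% inhibition of growth.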 Calls of active or inactive are those of the source. No stated cut-off is given here; in the data, active = GI50 up to about 1.1 µM and inactive = higher.

Legend:
Assay in all cases: growth of human tumour cells (NCI), 48 h
PC-3 = test system: PC-3
MDA-MB-435 = test system: MDA-MB-435
SR = test system: SR
MCF7 = test system: MCF7
NCI-H226 = test system: NCI-H226
M14 = test system: M14
MDA-N = test system: MDA-N
HOP-92 = test system: HOP-92
CAKI-1 = test system: CAKI-1
ACHN = test system: ACHN
NCI-H522 = test system: NCI-H522
DU-145 = test system: DU-145
TK-10 = test system: TK-10
M19-MEL = test system: M19-MEL
SNB-78 = test system: SNB-78
DLD-1 = test system: DLD-1
DMS-114 = test system: DMS-114
NCI/ADR-RES = test system: NCI/ADR-RES
DMS-273 = test system: DMS-273
KM-20L2 = test system: KM-20L2

O=C1c2ccccc2N1C(=O)c1ccccc1[N+](=O)[O-]
GI50 (PC-3): > 100 µM (inactive) | GI50 (MDA-MB-435): > 100 µM (inactive) | GI50 (SR): > 100 µM (inactive) | GI50 (MCF7): 97.1 µM (inactive) | GI50 (NCI-H226): 12.3 µM (inactive) | GI50 (M14): 59.7 µM (inactive) | GI50 (MDA-N): 74.6 µM (inactive) | GI50 (HOP-92): > 100 µM (inactive) | GI50 (CAKI-1): 92 µM (inactive) | GI50 (ACHN): 78.9 µM (inactive) | GI50 (NCI-H522): 91.2 µM (inactive) | GI50 (DU-145): > 100 µM (inactive) | GI50 (TK-10): > 100 µM (inactive)

Cc1cc(NS(=O)(=O)c2ccc(NC(=O)c3cccc4c(Nc5ccc(S(N)(=O)=O)cc5)c5ccccc5nc34)cc2)no1
GI50 (SR): 80.9 µM (inactive) | GI50 (M14): > 100 µM (inactive) | GI50 (M19-MEL): > 100 µM (inactive) | GI50 (SNB-78): > 100 µM (inactive) | GI50 (ACHN): > 100 µM (inactive) | GI50 (DLD-1): > 100 µM (inactive) | GI50 (NCI-H522): 41.6 µM (inactive) | GI50 (DMS-114): > 100 µM (inactive) | GI50 (TK-10): > 100 µM (inactive)

CC(=O)ON1C(=O)c2cccc3cccc(c23)C1=O
GI50 (PC-3): 25.8 µM (inactive) | GI50 (MDA-MB-435): 14.7 µM (inactive) | GI50 (NCI/ADR-RES): 34.3 µM (inactive) | GI50 (MCF7): 16 µM (inactive) | GI50 (M14): 21.6 µM (inactive) | GI50 (MDA-N): 18.3 µM (inactive) | GI50 (HOP-92): > 100 µM (inactive) | GI50 (CAKI-1): 17.9 µM (inactive) | GI50 (ACHN): 28.4 µM (inactive) | GI50 (NCI-H522): 14.6 µM (inactive) | GI50 (DU-145): 15.1 µM (inactive) | GI50 (TK-10): 31.7 µM (inactive)

NC(=O)Oc1ccccc1 [CARBAMIC ACID PHENYL ESTER]
GI50 (PC-3): > 100 µM (inactive) | GI50 (MDA-MB-435): > 100 µM (inactive) | GI50 (SR): > 100 µM (inactive) | GI50 (NCI/ADR-RES): > 100 µM (inactive) | GI50 (MCF7): > 100 µM (inactive) | GI50 (NCI-H226): > 100 µM (inactive) | GI50 (M14): > 100 µM (inactive) | GI50 (MDA-N): > 100 µM (inactive) | GI50 (HOP-92): > 100 µM (inactive) | GI50 (ACHN): > 100 µM (inactive) | GI50 (NCI-H522): > 100 µM (inactive) | GI50 (DU-145): > 100 µM (inactive) | GI50 (TK-10): > 100 µM (inactive)

O=C(NO)c1coc2ccccc2c1=O
GI50 (M14): 67.9 µM (inactive) | GI50 (CAKI-1): 8.26 µM (inactive) | GI50 (SNB-78): > 100 µM (inactive) | GI50 (ACHN): 23.7 µM (inactive) | GI50 (DMS-273): > 100 µM (inactive) | GI50 (DLD-1): > 100 µM (inactive) | GI50 (KM-20L2): > 100 µM (inactive) | GI50 (NCI-H522): > 100 µM (inactive) | GI50 (DMS-114): 82 µM (inactive) | GI50 (TK-10): 35.7 µM (inactive)

CC(C)(C)OC(=O)NCC(=O)NC1c2ccsc2/C(=N/O)[C@H]1O (stereo partly specified)
GI50 (PC-3): > 100 µM (inactive) | GI50 (MDA-MB-435): > 100 µM (inactive) | GI50 (SR): > 100 µM (inactive) | GI50 (NCI/ADR-RES): > 100 µM (inactive) | GI50 (MCF7): > 100 µM (inactive) | GI50 (NCI-H226): > 100 µM (inactive) | GI50 (M14): > 100 µM (inactive) | GI50 (MDA-N): > 100 µM (inactive) | GI50 (HOP-92): 7.36 µM (inactive) | GI50 (CAKI-1): > 100 µM (inactive) | GI50 (DU-145): > 100 µM (inactive) | GI50 (TK-10): > 100 µM (inactive)

Cc1ccc(NC(=O)c2cccc([N+](=O)[O-])c2O)c(C)c1
GI50 (SR): 22.3 µM (inactive) | GI50 (NCI-H226): 17.1 µM (inactive) | GI50 (M14): 36.6 µM (inactive) | GI50 (M19-MEL): 24.4 µM (inactive) | GI50 (CAKI-1): 6.97 µM (inactive) | GI50 (SNB-78): 26.9 µM (inactive) | GI50 (ACHN): 16.8 µM (inactive) | GI50 (DLD-1): 14.3 µM (inactive) | GI50 (KM-20L2): 21.5 µM (inactive) | GI50 (NCI-H522): 7.06 µM (inactive) | GI50 (DMS-114): 20.1 µM (inactive)

O=C1OC(c2ccc(O)c(F)c2)(c2ccc(O)c(F)c2)c2cccc3cccc1c23
GI50 (PC-3): 3.09 µM (inactive) | GI50 (MDA-MB-435): > 25 µM (inactive) | GI50 (SR): 8.04 µM (inactive) | GI50 (NCI/ADR-RES): 24.7 µM (inactive) | GI50 (MCF7): 1.79 µM (inactive) | GI50 (NCI-H226): > 25 µM (inactive) | GI50 (M14): > 25 µM (inactive) | GI50 (MDA-N): 15.6 µM (inactive) | GI50 (HOP-92): > 25 µM (inactive) | GI50 (CAKI-1): 2.79 µM (inactive) | GI50 (ACHN): > 25 µM (inactive) | GI50 (DU-145): > 25 µM (inactive) | GI50 (TK-10): > 25 µM (inactive)

COCCOCOc1ccc(OCc2ccccc2)cc1
GI50 (NCI/ADR-RES): > 82.8 µM (inactive) | GI50 (MCF7): > 35.9 µM (inactive) | GI50 (NCI-H226): > 100 µM (inactive) | GI50 (HOP-92): > 100 µM (inactive) | GI50 (M19-MEL): > 63.4 µM (inactive) | GI50 (CAKI-1): 2.25 µM (inactive) | GI50 (SNB-78): > 100 µM (inactive) | GI50 (DMS-273): > 94.6 µM (inactive) | GI50 (DLD-1): > 100 µM (inactive) | GI50 (KM-20L2): > 100 µM (inactive) | GI50 (DMS-114): 40.9 µM (inactive)

COc1cc2c(cc1Oc1ccc(OC)c3c1CC1c4c(cc(OC)c(OC)c4-3)CCN1C)CC1c3c(cc(OC)c(OC)c3-2)CCN1C (stereo unspecified)
GI50 (NCI/ADR-RES): 4.51 µM (inactive) | GI50 (MCF7): 3.08 µM (inactive) | GI50 (NCI-H226): 1.53 µM (inactive) | GI50 (HOP-92): 2.34 µM (inactive) | GI50 (M19-MEL): 1.74 µM (inactive) | GI50 (CAKI-1): 2.1 µM (inactive) | GI50 (SNB-78): 7.01 µM (inactive) | GI50 (DMS-273): 1.02 µM (active) | GI50 (DLD-1): 2.23 µM (inactive) | GI50 (KM-20L2): 0.957 µM (active) | GI50 (NCI-H522): 2.09 µM (inactive)

COc1cc2c(cc1OC)C(C1(O)CCCCC1)NCC2 (stereo unspecified)
GI50 (SR): > 100 µM (inactive) | GI50 (NCI-H226): > 100 µM (inactive) | GI50 (M14): > 100 µM (inactive) | GI50 (HOP-92): > 100 µM (inactive) | GI50 (M19-MEL): > 100 µM (inactive) | GI50 (ACHN): > 100 µM (inactive) | GI50 (DMS-273): > 100 µM (inactive) | GI50 (DLD-1): > 100 µM (inactive) | GI50 (KM-20L2): > 100 µM (inactive) | GI50 (TK-10): > 100 µM (inactive)

COc1ccc(-c2nnc(-c3ccncc3)o2)cc1
GI50 (PC-3): > 100 µM (inactive) | GI50 (MDA-MB-435): > 100 µM (inactive) | GI50 (SR): > 100 µM (inactive) | GI50 (NCI/ADR-RES): > 100 µM (inactive) | GI50 (MCF7): > 100 µM (inactive) | GI50 (NCI-H226): > 100 µM (inactive) | GI50 (M14): > 100 µM (inactive) | GI50 (MDA-N): > 100 µM (inactive) | GI50 (HOP-92): > 100 µM (inactive) | GI50 (CAKI-1): > 100 µM (inactive) | GI50 (ACHN): > 100 µM (inactive) | GI50 (NCI-H522): > 100 µM (inactive) | GI50 (DU-145): > 100 µM (inactive) | GI50 (TK-10): > 100 µM (inactive)

COc1cc([N+](=O)[O-])ccc1NC(=O)c1cccc([N+](=O)[O-])c1O
GI50 (SR): 17.8 µM (inactive) | GI50 (NCI-H226): 38.7 µM (inactive) | GI50 (M14): 45 µM (inactive) | GI50 (M19-MEL): 24.6 µM (inactive) | GI50 (CAKI-1): 17 µM (inactive) | GI50 (SNB-78): 27.9 µM (inactive) | GI50 (ACHN): 12.6 µM (inactive) | GI50 (DLD-1): 16.1 µM (inactive) | GI50 (KM-20L2): 27.5 µM (inactive) | GI50 (NCI-H522): 11.6 µM (inactive) | GI50 (DMS-114): 22.7 µM (inactive)

Cc1ccccc1-c1nc2c(C(=O)NCCN(C)C)cccc2[nH]1
GI50 (NCI/ADR-RES): 34.3 µM (inactive) | GI50 (MCF7): 41 µM (inactive) | GI50 (NCI-H226): 16 µM (inactive) | GI50 (HOP-92): 20.6 µM (inactive) | GI50 (CAKI-1): 47.6 µM (inactive) | GI50 (SNB-78): 51.5 µM (inactive) | GI50 (DMS-273): 31.5 µM (inactive) | GI50 (DLD-1): 37.7 µM (inactive) | GI50 (KM-20L2): 25.6 µM (inactive) | GI50 (NCI-H522): 59.3 µM (inactive) | GI50 (DMS-114): 47.5 µM (inactive)
